From article PMC11952846, “The sterol-regulating human ARV1 binds cholesterol and phospholipids through its conserved ARV1 homology domain” (The Journal of Biological Chemistry, 2025)
Changes are numbered by the printed parent chain. pEC50: −log10 of the molar value.

Assays:
GST-ARV1-N98 C58/C61A = target: T1, GST-ARV1-N98 C58/C61A (Homo sapiens, UniProt Q9H2C2, C58A/C61A); test: Liposome binding assay, site-directed mutant; details: PC:PL, sulfatide or PI(4)P liposomes
T1 construct: Expresses amino-terminal 98 amino acids of ARV1; made in house; host or cells: E. coli BL21 (pGEX-4T1)
T1 sequence (Q9H2C2 1-98 C58A/C61A): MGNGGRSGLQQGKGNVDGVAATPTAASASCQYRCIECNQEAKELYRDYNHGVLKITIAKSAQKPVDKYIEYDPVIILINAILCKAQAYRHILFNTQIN
Protocol: (§1) Lyophilized lipids were reconstituted in chloroform at 10 mg/ml and stored in glass tubes with Teflon tops at −20 °C until use. One milliliter of 10 mg/ml stock was dried under a stream of nitrogen in a glass tube until a lipid cake/film was formed. The lipid cake was then rehydrated in BLT rehydration buffer (5 mM Tris/HCl, pH 7.4, containing 150 mM NaCl) to a concentration of 1 mg/ml. Lipid suspensions were subjected to three freeze/thaw cycles using a dry ice ethanol/[…] water bath to encapsulate the buffer and improve liposome formation. The suspension and lipid extruder were equilibrated to temperature for 10 min and liposomes were extruded using […] polycarbonate membranes (Avestin). Liposomes were made by mixing stock lipid PL (1 mg/ml) with PC (10 mg/ml).
(§2) Sulfatide liposomes were generated as previously described ([94]). All lipids were resuspended in organic solvents as per manufacturer’s instructions. Liposomes were prepared with mixing PC:PE:cholesterol:sulfatides (1:1:1:4) and subsequently dried down by lyophilization to obtain lipid films. Lipids were hydrated in 20 mM Tris–HCL, pH 6.8, containing 100 mM NaCl at a concentration of 1 mg/ml.
(§3) PI(4)P liposomes were generated as described by Knodler et al. ([95]), with some modifications. Briefly, liposomes were generated at a lipid concentration of 10 mg/ml. Liposomes contained PC (60%), PI (30%), PE (8%), and PI(4)P (2%). Lipid solution was dried down and resuspended in liposome buffer (20 mM Hepes–HCL, pH 7.4, containing 1 mM EDTA and 50 mM potassium acetate). Liposomes were formed by sonication on ice.
(§4) Liposomes were serial diluted in floatation buffer (100 mM NaCl, 2 mM EDTA, pH 5.5) to a final concentration of 0.1 mg/ml. Nine hundred microliters of liposome solution was placed in clear ultracentrifuge tubes and mixed with 100 μl of 0.01 μg/ml of protein. The liposome/protein solution was incubated at room temperature for 1 h with occasional shaking. An initial 100 μl of liposome/protein solution (liposomes) was removed and the remaining 900 μl was centrifuged at 50,000g for 20 min at 4 °C. The pellet was resuspended in 800 μl of fresh floatation buffer, centrifuged as above, and 800 μl of supernatant was removed (wash 1). This was repeated a second time and again 800 μl of supernatant was removed (wash 2). The final pellet was resuspended in 100 μl of floatation buffer plus SDS treatment buffer (pellet). Thirty microliters of each fraction was run on a 15% SDS-PAGE gel and probed with an anti-GST monoclonal antibody at a 1:1500 dilution.

GST-ARV1-N98 K67A = target: T2, GST-ARV1-N98 K67A (Homo sapiens, UniProt Q9H2C2, K67A); test: Liposome binding assay, site-directed mutant; details: PC:PL, sulfatide liposomes
T2 construct: Expresses amino-terminal 98 amino acids of ARV1; made in house; host or cells: E. coli BL21 (pGEX-4T1)
T2 sequence (Q9H2C2 1-98 K67A): T1 sequence (Q9H2C2 1-98 C58A/C61A) with A58C, A61C, K67A
Protocol: as §1, §2, §3, §4

GST-ARV1-N98 N94A = target: T3, GST-ARV1-N98 N94A (Homo sapiens, UniProt Q9H2C2, N94A); test: Liposome binding assay, site-directed mutant; details: PC:PL, sulfatide or PI(4)P liposomes
T3 construct: Expresses amino-terminal 98 amino acids of ARV1; made in house; host or cells: E. coli BL21 (pGEX-4T1)
T3 sequence (Q9H2C2 1-98 N94A): T1 sequence (Q9H2C2 1-98 C58A/C61A) with A58C, A61C, N94A
Protocol: as §1, §2, §3, §4

6XHIS-ARV1-N98 = target: T4, 6XHIS-ARV1-N98 (Homo sapiens, UniProt Q9H2C2); test: HTRF phospholipid lipid-binding assay; details: biotinylated lipid (Bio-PL) titrated, 0.75 μM protein; lipid labels mean the biotinylated lipids
T4 construct: made in house; host or cells: E. coli BL21
T4 sequence (Q9H2C2 1-98): T1 sequence (Q9H2C2 1-98 C58A/C61A) with A58C, A61C
From the text: An HTRF assay was developed for 6XHIS-ARV1-N98-lipid binding. HTRF measures analyte interactions through fluorescence resonance energy transfer technology and time-resolved measurements ([53]). The interaction between two molecules can be quantified through binding each individual molecule involved with a fluorescent label and then analyzing the transfer of energy between the initial donor fluorophore and the secondary acceptor fluorophore. Following excitation of the first fluorophore, transfer of energy can only occur if the molecules bound with the fluorescent tags are within proximity to each other.
Assays were plated in 384-well flat bottom microplates (Greiner Bio, catalog #784075-25). Proteins were diluted using binding buffer (20 mM Hepes buffer, pH 7.2, containing 0.1% BSA, and 0.01% Tween20) to a stock concentration of 0.75 μM, and biotinylated phospholipids were dispensed, dried under nitrogen gas, and resuspended in binding buffer to a stock concentration of 50 μM. The lipid stock solution was diluted by 1:2 for a series of 12 serial dilutions. For the assay, in sequential order, 6 μl of binding buffer was loaded into the plate in triplicate for each dilution of phospholipid. To this, 2 μl of 0.75 μM 6XHIS-ARV1-N98 was added, followed by 2 μl of biotinylated phospholipid. Immediately following each addition loaded into the plate, the plate was centrifuged for 1 min at 1000 rpm to bring the contents to the bottom of the well. Next, detection antibodies were mixed with detection buffer (20 mM Hepes buffer, pH 8.5, containing 0.01% BSA and 200 mM KF). […] Plates were read on a PerkinElmer EnVision Xcite Multilabel plate reader.
Curves were logarithmically transformed and normalized to a common scale before being fit with a nonlinear regression of the agonist against the normalized response. […] For phospholipid competition analysis, IC50; M values were determined using nonlinear regression of the inhibitor against normalized response.

GST-ARV1-N98 E70A = target: T5, GST-ARV1-N98 E70A (Homo sapiens, UniProt Q9H2C2, E70A); test: Liposome binding assay, site-directed mutant; details: PE liposomes
T5 construct: Expresses amino-terminal 98 amino acids of ARV1; made in house; host or cells: E. coli BL21 (pGEX-4T1)
Protocol: as §1, §2, §3, §4

GST-ARV1-N98 K84A = target: T6, GST-ARV1-N98 K84A (Homo sapiens, UniProt Q9H2C2, K84A); test: Liposome binding assay, site-directed mutant; details: PE liposomes
T6 construct: Expresses amino-terminal 98 amino acids of ARV1; made in house; host or cells: E. coli BL21 (pGEX-4T1)
Protocol: as §1, §2, §3, §4

T5 sequence (Q9H2C2 1-98 E70A): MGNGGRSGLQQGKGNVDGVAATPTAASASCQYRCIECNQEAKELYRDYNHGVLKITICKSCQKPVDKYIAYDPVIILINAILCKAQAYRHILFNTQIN
T6 sequence (Q9H2C2 1-98 K84A): as the sequence (Q9H2C2 1-98 E70A) above, with A70E, K84A counted along it

Compound	pEC50 (6XHIS-ARV1-N98)	liposome binding (GST-ARV1-N98 C58/C61A)	liposome binding (GST-ARV1-N98 K67A)	liposome binding (GST-ARV1-N98 N94A)	further results
CCCCCCCCCCCCCCCC(=O)OC[C@H](COP(=O)(O)O)OC(=O)CCCCCCCCCCCCCCC [PA, phosphatidic acid]		did not bind			
CCCCCCCC/C=C\CCCCCCCC(=O)OC[C@H](COP(=O)(O)OCC(O)CO)OC(=O)CCCCCCC/C=C\CCCCCCCC (stereo partly shown) [PG, phosphatidylglycerol]			unable to bind	very weak	
CCCCCC(=O)O[C@H](COC(=O)CCCCCNC(=O)CCCC[C@@H]1SC[C@@H]2NC(=O)N[C@@H]21)COP(=O)(O)O[C@H]1[C@H](O)[C@@H](O)[C@H](OP(=O)(O)O)[C@@H](O)[C@H]1O [reference compound]		did not bind		lost the ability to bind	

Further lines, with some results ahead:

pEC50 (6XHIS-ARV1-N98)	Compound	liposome binding (GST-ARV1-N98 C58/C61A)	liposome binding (GST-ARV1-N98 K67A)	liposome binding (GST-ARV1-N98 N94A)	further results
5.96	phosphatidylcholine [PC]				
5.28	phosphatidylethanolamine [PE]		showed binding		liposome binding (GST-ARV1-N98 E70A): showed binding; liposome binding (GST-ARV1-N98 K84A): showed binding
